From article PMC10272180, “Ancient medicinal plant rosemary contains a highly efficacious and isoform-selective KCNQ potassium channel opener” (Communications Biology, 2023)

What was measured:
KCNQ3*-G244A = KCNQ3*-G244A (Homo sapiens, UniProt O43525, A315T/G244A); experiment: TEVC of mutant KCNQ3*-G244A in oocytes; type: cell-based; conditions: 100 µM
Text: (§1) We generated cRNA transcripts encoding human KCNQ1, 2, 3, and 5 (wild-type and mutant) by in vitro transcription using the mMessage mMachine kit (Thermo Fisher Scientific, Waltham, MA, USA) according to manufacturer’s instructions, after vector linearization, from cDNA sub-cloned into expression vectors (pTLNx and pXOOM) incorporating Xenopus laevis β-globin 5’ and 3’ UTRs flanking the coding region to enhance translation and cRNA stability. Mutant KCNQ cDNAs were generated by Genscript (Piscataway, NJ, USA) and cRNAs made as above. We injected defolliculated stage V and VI Xenopus laevis oocytes (Xenoocyte, Dexter, MI, USA) with KCNQ cRNAs (2–10 ng) and incubated the oocytes at 16 °C in ND96 oocyte storage solution containing penicillin and streptomycin, with daily washing, for 2–4 days prior to two-electrode voltage-clamp (TEVC) recording.
(§2) We performed TEVC at room temperature using an OC-725C amplifier (Warner Instruments, Hamden, CT, USA) and pClamp10 software (Molecular Devices, Sunnyvale, CA, USA) 2–4 days after cRNA injection. We placed oocytes in a small-volume oocyte bath (Warner) and viewed them with a dissection microscope for cellular electrophysiology. We sourced chemicals from Sigma-Aldrich (St. Louis, MO, USA) and Combi-Blocks (San Diego, CA, USA). We studied effects of Salvia rosmarinus extracts and of compounds, solubilized directly in bath solution (in mM): 96 NaCl, 4 KCl, 1 MgCl2, 1 CaCl2, 10 HEPES (pH 7.6). We introduced extracts or compounds into the oocyte recording bath by gravity perfusion at a constant flow of 1 ml per minute for 3 min prior to recording. Pipettes were of 1-2 MΩ resistance when filled with 3 M KCl. We recorded currents in response to voltage pulses between −120 mV and +40 mV at 10 mV intervals from a holding potential of −80 mV, to yield current-voltage relationships and examine activation kinetics. We analyzed data using Clampfit (Molecular Devices) and Graphpad Prism software (GraphPad, San Diego, CA, USA), stating values as mean ± SEM. […]

KCNQ3*-M240A = KCNQ3*-M240A (Homo sapiens, UniProt O43525, A315T/M240A); experiment: TEVC of mutant KCNQ3*-M240A in oocytes; type: cell-based; conditions: 100 µM
Text: as §1, §2

KCNQ2/3/5 = molecular target: T1, KCNQ2/3/5 (Homo sapiens, UniProt O43525+O43526+Q9NR82); experiment: TEVC of KCNQ2/3/5 heteromers expressed in Xenopus laevis oocytes; type: cell-based
T1 construct: expressed in transfected cells; host or cells: Xenopus laevis oocytes co-injected with cRNAs (1:1:1 according to the authors' reply)
Text: as §1
(§3) We performed TEVC at room temperature using an OC-725C amplifier (Warner Instruments, Hamden, CT, USA) and pClamp10 software (Molecular Devices, Sunnyvale, CA, USA) 2–4 days after cRNA injection. We placed oocytes in a small-volume oocyte bath (Warner) and viewed them with a dissection microscope for cellular electrophysiology. We sourced chemicals from Sigma-Aldrich (St. Louis, MO, USA) and Combi-Blocks (San Diego, CA, USA). We studied effects of Salvia rosmarinus extracts and of compounds, solubilized directly in bath solution (in mM): 96 NaCl, 4 KCl, 1 MgCl2, 1 CaCl2, 10 HEPES (pH 7.6). We introduced extracts or compounds into the oocyte recording bath by gravity perfusion at a constant flow of 1 ml per minute for 3 min prior to recording. Pipettes were of 1-2 MΩ resistance when filled with 3 M KCl. We recorded currents in response to voltage pulses between −120 mV and +40 mV at 10 mV intervals from a holding potential of −80 mV, to yield current-voltage relationships and examine activation kinetics. We analyzed data using Clampfit (Molecular Devices) and Graphpad Prism software (GraphPad, San Diego, CA, USA), stating values as mean ± SEM. We plotted raw or normalized tail currents versus prepulse voltage and fitted with a single Boltzmann function:1 g=(A1−A2)/1+exp[V1/2−V/Vs]y+A2 where g is the normalized tail conductance, A1 is the initial value at -∞, A2 is the final value at +∞, V1/2 is the half-maximal voltage of activation and Vs the slope factor. We fitted activation and deactivation kinetics with single exponential functions.

KCNQ2 = KCNQ2 (Homo sapiens, UniProt O43526); experiment: TEVC of KCNQ2 homomers expressed in Xenopus laevis oocytes; type: cell-based
Text: as §1
as §3, with “We recorded currents in response to voltage pulses between −120 mV and +40 mV at 10 mV intervals from a holding potential of −80 mV, to yield current-voltage relationships and examine activation kinetics.” left out

[1] = molecular target: T2, KCNQ3* coexpressed with Danio rerio VSP (DrVSP) (Homo sapiens, UniProt O43525, A315T); experiment: TEVC of KCNQ3* coexpressed with DrVSP, PIP2 depletion at +120 mV; type: cell-based; conditions: 5 µM
T2 construct: expressed in transfected cells; host or cells: Xenopus laevis oocytes
Text: Under baseline conditions, binding of the […], lipid-derived signaling molecule phosphatidylinositol 4,5-bisphosphate (PIP2) to KCNQ3 (and other KCNQ isoforms) is required for efficient coupling of the voltage sensor to pore opening and thus voltage-dependent gating[22],[23]. […] Another strategy for PIP2 reduction is to express a voltage-sensitive phosphatase (VSP) that reduces PIP2 levels upon membrane depolarization. […]
We performed TEVC at room temperature using an OC-725C amplifier (Warner Instruments, Hamden, CT, USA) and pClamp10 software (Molecular Devices, Sunnyvale, CA, USA) 2–4 days after cRNA injection. […] We recorded currents in response to voltage pulses between −120 mV and +40 mV at 10 mV intervals from a holding potential of −80 mV, to yield current-voltage relationships and examine activation kinetics. We analyzed data using Clampfit (Molecular Devices) and Graphpad Prism software (GraphPad, San Diego, CA, USA), stating values as mean ± SEM. […]

GABAA receptor = test system: GABAA receptor; design: method as in PMID 1378214; conditions: rat brain membranes in vitro; cited from earlier work
KCNQ2/5 = molecular target: T3, KCNQ2/5 (Homo sapiens, UniProt O43526+Q9NR82); experiment: TEVC of KCNQ2/5 heteromers expressed in Xenopus laevis oocytes; type: cell-based
T3 construct: expressed in transfected cells; host or cells: Xenopus laevis oocytes co-injected with cRNAs
Text: as §1, §3

SMILES: CC(C)c1cc2c(c(O)c1O)[C@@]1(C(=O)O)CCCC(C)(C)[C@@H]1CC2 [Carnosic acid, carnosic acid]
- Slope (KCNQ3*-G244A): 11.55 ± 1.94 mV
- V0.5 Normalized tail current (KCNQ3*-G244A): -97.68 ± 3.18 mV
- carnosic acid effects compared with KCNQ3* (KCNQ3*-G244A): indistinguishably
- Slope (KCNQ3*-M240A): 17.31 ± 1.56 mV
- V0.5 Normalized tail current (KCNQ3*-M240A): -66.81 ± 1.80 mV
- constitutive current at −120 mV (KCNQ3*-M240A): 20%
- V0.5 Normalized tail current (KCNQ2/3/5; 0.1 µM): -43.51 ± 1.17 mV
- V0.5 Normalized tail current (KCNQ2/3/5; 1 µM): -47.43 ± 0.94 mV
- V0.5 Normalized tail current (KCNQ2/3/5; 3 µM): -49.89 ± 0.88 mV
- V0.5 Normalized tail current (KCNQ2/3/5; 10 µM): -52.31 ± 0.77 mV
- V0.5 Normalized tail current (KCNQ2/3/5; 30 µM): -54.68 ± 0.89 mV
- V0.5 Normalized tail current (KCNQ2/3/5; 100 µM): -57.42 ± 1.03 mV
- EC50 (KCNQ2/3/5; EC50 EM): 3130 ± 440 nM
- EC50 (KCNQ2/3/5; EC50 V0.5 Activation): 2020 ± 440 nM
- V0.5 Normalized tail current (KCNQ2; 0.1 µM): -41.03 ± 1.43 mV
- V0.5 Normalized tail current (KCNQ2; 1 µM): -44.14 ± 0.95 mV
- V0.5 Normalized tail current (KCNQ2; 3 µM): -46.74 ± 0.85 mV
- V0.5 Normalized tail current (KCNQ2; 10 µM): -45.67 ± 0.73 mV
- V0.5 Normalized tail current (KCNQ2; 30 µM): -45.20 ± 0.88 mV
- V0.5 Normalized tail current (KCNQ2; 100 µM): -43.10 ± 0.64 mV
- activity across the concentration range tested (KCNQ2; 0.1-100 µM): only weakly active
- effect on DrVSP-induced KCNQ3* current decay [1]: reduced or prevented
- effect on binding of [35S]tert-butylbicyclophosphorothionate (GABAA receptor): decrease the binding affinity
- V0.5 Normalized tail current (KCNQ2/5; 0.1 µM): -40.58 ± 1.11 mV
- V0.5 Normalized tail current (KCNQ2/5; 1 µM): -44.54 ± 0.73 mV
- V0.5 Normalized tail current (KCNQ2/5; 3 µM): -47.07 ± 0.55 mV
- V0.5 Normalized tail current (KCNQ2/5; 10 µM): -46.44 ± 0.68 mV
- V0.5 Normalized tail current (KCNQ2/5; 30 µM): -45.89 ± 0.76 mV
- V0.5 Normalized tail current (KCNQ2/5; 100 µM): -46.50 ± 0.97 mV
- EC50 (KCNQ2/5; EC50 EM): 4760 ± 340 nM
- EC50 (KCNQ2/5; EC50 V0.5 Activation): 740 ± 120 nM
